From patent publication US20240239861A1, “GLUCAGON-RECEPTOR SELECTIVE POLYPEPTIDES AND METHODS OF USE THEREOF” (i2O Therapeutics, Inc., priority 2016, published 2024)
Where a SMILES comes first, the peptide text is derived from it. [ ]: non-standard residue; d: D form. Aib = CC(C)(N)C(=O)O

Assays:
in vivo = details: male, rat
human GLP-1R = human GLP-1R (Homo sapiens, UniProt P43220); assay: Peptide-receptor mediated cAMP accumulation (LANCE Ultra cAMP) in CHO-K1 cells transfected with human GLP-1R; type: cell-based; details: hGLP1 pEC50 (cAMP mean (n = 3): 11 point curve starting at 1 nM, Table 3)
human GCGR = human GCGR (Homo sapiens, UniProt P47871); assay: Peptide-receptor mediated cAMP accumulation (LANCE Ultra cAMP) in CHO-K1 cells transfected with human GCGR; type: cell-based; details: Table 3
Sequence of human GCGR (P47871 26-477): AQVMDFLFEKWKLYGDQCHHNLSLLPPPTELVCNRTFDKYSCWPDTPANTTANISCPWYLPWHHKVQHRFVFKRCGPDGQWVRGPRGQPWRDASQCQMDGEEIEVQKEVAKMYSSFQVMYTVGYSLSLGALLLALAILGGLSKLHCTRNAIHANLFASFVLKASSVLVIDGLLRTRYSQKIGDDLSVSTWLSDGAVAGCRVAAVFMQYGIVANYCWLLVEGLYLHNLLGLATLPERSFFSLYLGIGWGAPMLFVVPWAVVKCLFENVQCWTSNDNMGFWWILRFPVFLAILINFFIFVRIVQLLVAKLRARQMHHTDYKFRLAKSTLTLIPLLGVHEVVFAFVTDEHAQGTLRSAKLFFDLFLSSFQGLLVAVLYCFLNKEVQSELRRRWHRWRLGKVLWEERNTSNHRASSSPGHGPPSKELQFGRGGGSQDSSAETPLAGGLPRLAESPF

Sequence of human GLP-1R (P43220 24-463): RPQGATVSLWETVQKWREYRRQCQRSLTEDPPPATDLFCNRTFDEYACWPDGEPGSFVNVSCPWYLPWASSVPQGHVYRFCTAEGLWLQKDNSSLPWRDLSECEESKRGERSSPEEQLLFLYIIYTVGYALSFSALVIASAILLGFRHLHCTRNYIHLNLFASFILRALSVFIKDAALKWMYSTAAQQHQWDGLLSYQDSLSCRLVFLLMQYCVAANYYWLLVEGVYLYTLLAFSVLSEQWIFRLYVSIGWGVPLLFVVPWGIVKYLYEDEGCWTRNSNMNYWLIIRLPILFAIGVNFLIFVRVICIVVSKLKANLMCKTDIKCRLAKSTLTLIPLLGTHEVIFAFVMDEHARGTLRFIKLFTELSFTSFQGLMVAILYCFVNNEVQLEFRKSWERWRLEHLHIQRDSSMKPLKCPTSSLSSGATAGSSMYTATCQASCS

| SMILES | clearance (in vivo) [mL/min/kg] | EC50 (human GLP-1R) [nM] | EC50 (human GCGR) [pM] |
| --- | --- | --- | --- |
| CC(C)C[C@H](NC(=O)[C@H](Cc1ccc(O)cc1)NC(=O)[C@H](CCCCN)NC(=O)[C@H](CO)NC(=O)[C@H](Cc1ccc(O)cc1)NC(=O)[C@H](CC(=O)O)NC(=O)[C@H](CO)NC(=O)[C@@H](NC(=O)[C@H](Cc1ccccc1)NC(=O)[C@@H](NC(=O)CNC(=O)[C@H](Cc1c[nH]cn1)NC(=O)[C@H](CO)NC(=O)[C@@H](N)Cc1ccc(O)cc1)[C@@H](C)O)[C@@H](C)O)C(=O)N[C@@H](CC(=O)O)C(=O)N[C@@H](CCCCN)C(=O)N[C@@H](C)C(=O)N[C@@H](CCCNC(=N)N)C(=O)N[C@@H](C)C(=O)N[C@@H](CCC(N)=O)C(=O)N[C@@H](CCC(=O)O)C(=O)N[C@@H](Cc1ccccc1)C(=O)N[C@H](C(=O)N[C@@H](CCCCN)C(=O)N[C@@H](Cc1c[nH]c2ccccc12)C(=O)N[C@@H](CC(C)C)C(=O)N[C@@H](CCC(=O)O)C(=O)N[C@@H](CC(=O)O)C(=O)N[C@@H](CCC(=O)O)C(=O)N1CCC[C@H]1C(=O)N[C@@H](CO)C(=O)N[C@@H](CO)C(=O)NCC(=O)N[C@@H](C)C(=O)N1CCC[C@H]1C(=O)N1CCC[C@H]1C(=O)N1CCC[C@H]1C(=O)N[C@@H](CO)C(=O)O)C(C)C [Compound A43] (H-YSHGTFTSDYSKYLDKARAQEFVKWLEDEPSSGAPPPS-OH; N-terminus assumed) | 47 | > 1 | 1.58 |
| CC(C)C[C@H](NC(=O)[C@H](Cc1ccc(O)cc1)NC(=O)[C@H](CCCCN)NC(=O)[C@H](CO)NC(=O)[C@H](Cc1ccc(O)cc1)NC(=O)[C@H](CC(=O)O)NC(=O)[C@H](CO)NC(=O)[C@@H](NC(=O)[C@H](Cc1ccccc1)NC(=O)[C@@H](NC(=O)CNC(=O)[C@H](Cc1c[nH]cn1)NC(=O)[C@H](CO)NC(=O)[C@@H](N)Cc1ccc(O)cc1)[C@@H](C)O)[C@@H](C)O)C(=O)N[C@@H](CC(=O)O)C(=O)N[C@@H](CCC(N)=O)C(=O)N[C@@H](C)C(=O)N[C@@H](CCCNC(=N)N)C(=O)N[C@@H](C)C(=O)N[C@@H](CCC(N)=O)C(=O)N[C@@H](CCC(=O)O)C(=O)N[C@@H](Cc1ccccc1)C(=O)N[C@H](C(=O)N[C@@H](CCCCN)C(=O)N[C@@H](Cc1c[nH]c2ccccc12)C(=O)N[C@@H](CC(C)C)C(=O)N[C@@H](CCC(=O)O)C(=O)N[C@@H](CC(=O)O)C(=O)N[C@@H](CCC(=O)O)C(=O)N1CCC[C@H]1C(=O)N[C@@H](CO)C(=O)N[C@@H](CO)C(=O)NCC(=O)N[C@@H](C)C(=O)N1CCC[C@H]1C(=O)N1CCC[C@H]1C(=O)N1CCC[C@H]1C(=O)N[C@@H](CO)C(=O)O)C(C)C [Compound A44] (H-YSHGTFTSDYSKYLDQARAQEFVKWLEDEPSSGAPPPS-OH; N-terminus assumed) | 23.9 | > 1 | 1.26 |
| CC(C)C[C@H](NC(=O)[C@H](Cc1ccc(O)cc1)NC(=O)[C@H](CCCCN)NC(=O)[C@H](CO)NC(=O)[C@H](Cc1ccc(O)cc1)NC(=O)[C@H](CC(=O)O)NC(=O)[C@H](CO)NC(=O)[C@@H](NC(=O)[C@H](Cc1ccccc1)NC(=O)[C@@H](NC(=O)CNC(=O)[C@H](Cc1c[nH]cn1)NC(=O)[C@H](CO)NC(=O)[C@@H](N)Cc1ccc(O)cc1)[C@@H](C)O)[C@@H](C)O)C(=O)N[C@@H](CC(=O)O)C(=O)N[C@@H](CO)C(=O)N[C@@H](C)C(=O)N[C@@H](CCCNC(=N)N)C(=O)N[C@@H](C)C(=O)N[C@@H](CCC(N)=O)C(=O)N[C@@H](CCC(=O)O)C(=O)N[C@@H](Cc1ccccc1)C(=O)N[C@H](C(=O)N[C@@H](CCCCN)C(=O)N[C@@H](Cc1c[nH]c2ccccc12)C(=O)N[C@@H](CC(C)C)C(=O)N[C@@H](CCC(=O)O)C(=O)N[C@@H](CC(=O)O)C(=O)N[C@@H](CCC(=O)O)C(=O)N1CCC[C@H]1C(=O)N[C@@H](CO)C(=O)N[C@@H](CO)C(=O)NCC(=O)N[C@@H](CCCCN)C(=O)N1CCC[C@H]1C(=O)N1CCC[C@H]1C(=O)N1CCC[C@H]1C(=O)N[C@@H](CO)C(=O)O)C(C)C [Compound A61] (H-YSHGTFTSDYSKYLDSARAQEFVKWLEDEPSSGKPPPS-OH; N-terminus assumed) | 29.4 | > 1 | 3.98 |
| CC(C)C[C@H](NC(=O)[C@H](Cc1ccc(O)cc1)NC(=O)[C@H](CCCCN)NC(=O)[C@H](CO)NC(=O)[C@H](Cc1ccc(O)cc1)NC(=O)[C@H](CC(=O)O)NC(=O)[C@H](CO)NC(=O)[C@@H](NC(=O)[C@H](Cc1ccccc1)NC(=O)[C@@H](NC(=O)CNC(=O)[C@H](CCC(N)=O)NC(=O)[C@H](CO)NC(=O)[C@@H](N)Cc1ccc(O)cc1)[C@@H](C)O)[C@@H](C)O)C(=O)N[C@@H](CC(=O)O)C(=O)NC(C)(C)C(=O)N[C@@H](CCCCN)C(=O)N[C@@H](CCCNC(=N)N)C(=O)N[C@@H](C)C(=O)N[C@@H](CCC(N)=O)C(=O)N[C@@H](CCC(=O)O)C(=O)N[C@@H](Cc1ccccc1)C(=O)N[C@H](C(=O)NC(C)(C)C(=O)N[C@@H](Cc1c[nH]c2ccccc12)C(=O)N[C@@H](CC(C)C)C(=O)N[C@@H](CCC(=O)O)C(=O)N[C@@H](CC(=O)O)C(=O)N[C@@H](CCC(=O)O)C(=O)N1CCC[C@H]1C(=O)N[C@@H](CO)C(=O)N[C@@H](CO)C(=O)NCC(=O)N[C@@H](CCCCN)C(=O)N1CCC[C@H]1C(=O)N1CCC[C@H]1C(=O)N1CCC[C@H]1C(=O)N[C@@H](CO)C(=O)O)C(C)C [Compound A86] (H-YSQGTFTSDYSKYLD[Aib]KRAQEFV[Aib]WLEDEPSSGKPPPS-OH; N-terminus assumed) | 14.7 | > 1 |  |
| CC(C)C[C@H](NC(=O)[C@H](Cc1ccc(O)cc1)NC(=O)[C@H](CCCCN)NC(=O)[C@H](CO)NC(=O)[C@H](Cc1ccc(O)cc1)NC(=O)[C@H](CC(=O)O)NC(=O)[C@H](CO)NC(=O)[C@@H](NC(=O)[C@H](Cc1ccccc1)NC(=O)[C@@H](NC(=O)CNC(=O)[C@H](CCC(N)=O)NC(=O)[C@H](CO)NC(=O)[C@@H](N)Cc1c[nH]c2ccccc12)[C@@H](C)O)[C@@H](C)O)C(=O)N[C@@H](CC(=O)O)C(=O)NC(C)(C)C(=O)N[C@@H](CCCCN)C(=O)N[C@@H](CCCNC(=N)N)C(=O)N[C@@H](C)C(=O)N[C@@H](CCC(N)=O)C(=O)N[C@@H](CCC(=O)O)C(=O)N[C@@H](Cc1ccccc1)C(=O)N[C@H](C(=O)NC(C)(C)C(=O)N[C@@H](Cc1c[nH]c2ccccc12)C(=O)N[C@@H](CC(C)C)C(=O)N[C@@H](CCC(=O)O)C(=O)N[C@@H](CC(=O)O)C(=O)N[C@@H](CCC(=O)O)C(=O)N1CCC[C@H]1C(=O)N[C@@H](CO)C(=O)N[C@@H](CO)C(=O)NCC(=O)N[C@@H](CCCCN)C(=O)N1CCC[C@H]1C(=O)N1CCC[C@H]1C(=O)N1CCC[C@H]1C(=O)N[C@@H](CO)C(=O)O)C(C)C [Compound A91] (H-WSQGTFTSDYSKYLD[Aib]KRAQEFV[Aib]WLEDEPSSGKPPPS-OH; N-terminus assumed) | 13.7 | > 1 |  |
| CC(C)C[C@H](NC(=O)[C@H](Cc1ccc(O)cc1)NC(=O)[C@H](CCCCN)NC(=O)[C@H](CO)NC(=O)[C@H](Cc1ccc(O)cc1)NC(=O)[C@H](CC(=O)O)NC(=O)[C@H](CO)NC(=O)[C@@H](NC(=O)[C@H](Cc1ccccc1)NC(=O)[C@@H](NC(=O)CNC(=O)[C@H](CCC(N)=O)NC(=O)[C@H](CO)NC(=O)[C@@H](N)Cc1ccc(O)cc1)[C@@H](C)O)[C@@H](C)O)C(=O)N[C@@H](CC(=O)O)C(=O)NC(C)(C)C(=O)N[C@@H](CCCCN)C(=O)N[C@@H](CCCNC(=N)N)C(=O)N[C@@H](C)C(=O)N[C@@H](CCC(N)=O)C(=O)N[C@@H](CCC(=O)O)C(=O)N[C@@H](Cc1ccccc1)C(=O)N[C@H](C(=O)NC(C)(C)C(=O)N[C@@H](Cc1c[nH]c2ccccc12)C(=O)N[C@@H](CC(C)C)C(=O)N[C@@H](CCC(=O)O)C(=O)N[C@@H](CC(=O)O)C(=O)N[C@@H](CCC(=O)O)C(=O)N1CCC[C@H]1C(=O)N[C@@H](CO)C(=O)N[C@@H](CO)C(=O)NCC(=O)N[C@@H](C)C(=O)N1CCC[C@H]1C(=O)N1CCC[C@H]1C(=O)N1CCC[C@H]1C(=O)N[C@@H](CO)C(=O)O)C(C)C [Compound A94] (H-YSQGTFTSDYSKYLD[Aib]KRAQEFV[Aib]WLEDEPSSGAPPPS-OH; N-terminus assumed) | 16.5 | > 1 |  |
| CC(C)C[C@H](NC(=O)[C@H](Cc1ccc(O)cc1)NC(=O)[C@H](CCCCN)NC(=O)[C@H](CO)NC(=O)[C@H](Cc1ccc(O)cc1)NC(=O)[C@H](CC(=O)O)NC(=O)[C@H](CO)NC(=O)[C@@H](NC(=O)[C@H](Cc1ccccc1)NC(=O)[C@@H](NC(=O)CNC(=O)[C@H](CCC(N)=O)NC(=O)[C@H](CO)NC(=O)[C@@H](N)Cc1ccc(O)cc1)[C@@H](C)O)[C@@H](C)O)C(=O)N[C@@H](CC(=O)O)C(=O)NC(C)(C)C(=O)N[C@@H](CCCCN)C(=O)N[C@@H](C)C(=O)N[C@@H](C)C(=O)N[C@@H](CCC(N)=O)C(=O)N[C@@H](CCC(=O)O)C(=O)N[C@@H](Cc1ccccc1)C(=O)N[C@H](C(=O)NC(C)(C)C(=O)N[C@@H](Cc1c[nH]c2ccccc12)C(=O)N[C@@H](CC(C)C)C(=O)N[C@@H](CCC(=O)O)C(=O)N[C@@H](CC(=O)O)C(=O)N[C@@H](CCC(=O)O)C(=O)N1CCC[C@H]1C(=O)N[C@@H](CO)C(=O)N[C@@H](CO)C(=O)NCC(=O)N[C@@H](C)C(=O)N1CCC[C@H]1C(=O)N1CCC[C@H]1C(=O)N1CCC[C@H]1C(=O)N[C@@H](CO)C(=O)O)C(C)C [Compound A95] (H-YSQGTFTSDYSKYLD[Aib]KAAQEFV[Aib]WLEDEPSSGAPPPS-OH; N-terminus assumed) | 15.4 | > 1 |  |
